Source: PMC5218480 (PLoS ONE, 2017)

Tested on: MV-4-11 cells
Experiment: Gene expression microarray analysis (Affymetrix PrimeView) and GSEA
Format: cell-based, human
Parameters: RFU PODN (11730768_x_at) / Fold change /veh PODN (11730768_x_at) / RFU LINC00158 (11744669_a_at) / Fold change /veh LINC00158 (11744669_a_at) / RFU DUSP10 (11751237_a_at) / Fold change /veh DUSP10 (11751237_a_at) / RFU ID3 (11757404_x_at) / Fold change /veh ID3 (11757404_x_at) / RFU PLEKHG5 (11737974_s_at) / Fold change /veh PLEKHG5 (11737974_s_at) / RFU LRRC4B (11730491_at) / Fold change /veh LRRC4B (11730491_at) / RFU GIMAP4 (11747438_a_at) / Fold change /veh GIMAP4 (11747438_a_at) / RFU KRT8 (11758183_x_at) / Fold change /veh KRT8 (11758183_x_at) / RFU CNN1 (11734310_a_at) / Fold change /veh CNN1 (11734310_a_at) / RFU VPS37D (11726825_at) / Fold change /veh VPS37D (11726825_at) / RFU C10orf10 (11716522_x_at) / Fold change /veh C10orf10 (11716522_x_at) / RFU KIR2DL2 /// KIR2DL4 /// KIR2DL5A /// KIR2DL5B /// KIR2DS1 /// KIR2DS2 /// KIR2DS3 /// KIR2DS4 /// KIR3DL3 /// KIR3DL3 /// KIR3DS1 (11738374_at) / Fold change /veh KIR2DL2 /// KIR2DL4 /// KIR2DL5A /// KIR2DL5B /// KIR2DS1 /// KIR2DS2 /// KIR2DS3 /// KIR2DS4 /// KIR3DL3 /// KIR3DL3 /// KIR3DS1 (11738374_at) / RFU C1QL1 (11718748_at) / Fold change /veh C1QL1 (11718748_at) / RFU TMPRSS4 (11747572_a_at) / Fold change /veh TMPRSS4 (11747572_a_at) / RFU HAMP (11756126_x_at) / Fold change /veh HAMP (11756126_x_at) / RFU RNFT2 (11725882_a_at) / Fold change /veh RNFT2 (11725882_a_at) / RFU NR4A2 (11747474_a_at) / Fold change /veh NR4A2 (11747474_a_at) / RFU ABCC12 (11746883_a_at) / Fold change /veh ABCC12 (11746883_a_at) / RFU TMEM136 (11760407_x_at) / Fold change /veh TMEM136 (11760407_x_at) / RFU CLDN22 /// WWC2 (11732394_at) / Fold change /veh CLDN22 /// WWC2 (11732394_at) / RFU HLA-DPB1 (11760878_x_at) / Fold change /veh HLA-DPB1 (11760878_x_at) / RFU SPINT1 (11716480_a_at) / Fold change /veh SPINT1 (11716480_a_at) / RFU GAP43 (11754022_s_at) / Fold change /veh GAP43 (11754022_s_at) / RFU A4GNT (11735810_at) / Fold change /veh A4GNT (11735810_at) / RFU PRB3 (11715151_x_at) / Fold change /veh PRB3 (11715151_x_at) / RFU TUBB4B (11761932_at) / Fold change /veh TUBB4B (11761932_at) / RFU CAPN14 (11732068_a_at) / Fold change /veh CAPN14 (11732068_a_at) / RFU TMCC2 (11721928_a_at) / Fold change /veh TMCC2 (11721928_a_at) / RFU IRGQ (11745062_a_at) / Fold change /veh IRGQ (11745062_a_at) / RFU FAM174B (11720279_a_at) / Fold change /veh FAM174B (11720279_a_at) / RFU TMPRSS4 (11748680_a_at) / Fold change /veh TMPRSS4 (11748680_a_at) / RFU FAM212B (11763350_a_at) / Fold change /veh FAM212B (11763350_a_at) / RFU PLEKHG5 (11743358_a_at) / Fold change /veh PLEKHG5 (11743358_a_at) / RFU ZSCAN30 (11745921_a_at) / Fold change /veh ZSCAN30 (11745921_a_at) / RFU CMKLR1 (11741424_a_at) / Fold change /veh CMKLR1 (11741424_a_at) / RFU LOC101060620 /// MAPK8IP1 (11723275_at) / Fold change /veh LOC101060620 /// MAPK8IP1 (11723275_at) / RFU SPTSSB (11747773_x_at) / Fold change /veh SPTSSB (11747773_x_at) / RFU PRSS12 (11739890_at) / Fold change /veh PRSS12 (11739890_at) / RFU BIN1 (11741810_x_at) / Fold change /veh BIN1 (11741810_x_at) / RFU WNT11 (11732464_a_at) / Fold change /veh WNT11 (11732464_a_at) / RFU C10orf10 (11716521_a_at) / Fold change /veh C10orf10 (11716521_a_at) / RFU C5orf56 (11738089_at) / Fold change /veh C5orf56 (11738089_at) / RFU CYB561 (11721691_x_at) / Fold change /veh CYB561 (11721691_x_at) / RFU ANKRD19P (11752326_a_at) / Fold change /veh ANKRD19P (11752326_a_at) / RFU OR2T12 /// OR2T33 /// OR2T8 (11738714_s_at) / Fold change /veh OR2T12 /// OR2T33 /// OR2T8 (11738714_s_at) / RFU VCAN (11748164_a_at) / Fold change /veh VCAN (11748164_a_at) / RFU JSRP1 (11732532_at) / Fold change /veh JSRP1 (11732532_at) / RFU KRTAP10-11 (11738290_x_at) / Fold change /veh KRTAP10-11 (11738290_x_at) / RFU MYO3A (11730013_a_at) / Fold change /veh MYO3A (11730013_a_at) / RFU EBF3 (11725865_a_at) / Fold change /veh EBF3 (11725865_a_at) / RFU CAMK2N1 (11719241_x_at) / Fold change /veh CAMK2N1 (11719241_x_at) / RFU C5orf56 (11738088_a_at) / Fold change /veh C5orf56 (11738088_a_at) / RFU OLFML3 (11715873_a_at) / Fold change /veh OLFML3 (11715873_a_at) / RFU LOC100653217 /// NTM (11731650_a_at) / Fold change /veh LOC100653217 /// NTM (11731650_a_at) / RFU MAPK11 (11762145_a_at) / Fold change /veh MAPK11 (11762145_a_at) / RFU FIZ1 (11724087_x_at) / Fold change /veh FIZ1 (11724087_x_at) / RFU OASL (11726364_x_at) / Fold change /veh OASL (11726364_x_at) / RFU SOX15 (11748057_x_at) / Fold change /veh SOX15 (11748057_x_at) / RFU CD79A (11719716_a_at) / Fold change /veh CD79A (11719716_a_at) / RFU HIST1H1D (11736915_at) / Fold change /veh HIST1H1D (11736915_at) / RFU CASKIN2 (11723855_a_at) / Fold change /veh CASKIN2 (11723855_a_at) / RFU LOC730098 (11760151_x_at) / Fold change /veh LOC730098 (11760151_x_at) / RFU OR4N2 (11742367_at) / Fold change /veh OR4N2 (11742367_at) / RFU PRRT2 (11749266_a_at) / Fold change /veh PRRT2 (11749266_a_at) / RFU SNX32 (11753110_a_at) / Fold change /veh SNX32 (11753110_a_at) / RFU CDHR5 (11726645_a_at) / Fold change /veh CDHR5 (11726645_a_at) / RFU RCAN1 (11760418_a_at) / Fold change /veh RCAN1 (11760418_a_at) / RFU FAM167A (11723789_a_at) / Fold change /veh FAM167A (11723789_a_at) / RFU FAM26E (11764081_at) / Fold change /veh FAM26E (11764081_at) / RFU ISYNA1 (11749810_s_at) / Fold change /veh ISYNA1 (11749810_s_at) / RFU ACY1 (11761880_at) / Fold change /veh ACY1 (11761880_at) / RFU 11764098_at / Fold change /veh 11764098_at / RFU SAMD14 (11745864_x_at) / Fold change /veh SAMD14 (11745864_x_at) / RFU NPB (11741838_a_at) / Fold change /veh NPB (11741838_a_at) / RFU TMPRSS6 (11731388_a_at) / Fold change /veh TMPRSS6 (11731388_a_at) / RFU KRTAP10-2 (11738614_at) / Fold change /veh KRTAP10-2 (11738614_at) / RFU ARHGAP8 /// PRR5-ARHGAP8 (11727945_x_at) / Fold change /veh ARHGAP8 /// PRR5-ARHGAP8 (11727945_x_at) / RFU KRTAP5-7 /// NADSYN1 (11734609_at) / Fold change /veh KRTAP5-7 /// NADSYN1 (11734609_at) / RFU RASL12 (11751679_a_at) / Fold change /veh RASL12 (11751679_a_at) / RFU CDKN2B (11736163_a_at) / Fold change /veh CDKN2B (11736163_a_at) / RFU PRF1 (11729649_at) / Fold change /veh PRF1 (11729649_at) / RFU, ZNF638 /// ZNF638-IT1 / Fold change vs veh, ZNF638 /// ZNF638-IT1 / RFU, PANK3 / Fold change vs veh, PANK3 / RFU, SH3YL1 / Fold change vs veh, SH3YL1 / RFU, ZEB2 / Fold change vs veh, ZEB2 / RFU, NRIP1 / Fold change vs veh, NRIP1 / RFU, PTTG1IP / Fold change vs veh, PTTG1IP / RFU, CAPN2 / Fold change vs veh, CAPN2 / RFU, MED14 / Fold change vs veh, MED14 / RFU, SNORA58 / Fold change vs veh, SNORA58 / RFU, C1orf63 / Fold change vs veh, C1orf63 / RFU, LRRFIP1 / Fold change vs veh, LRRFIP1 / RFU, NDUFAF7 / Fold change vs veh, NDUFAF7 / RFU, SLC12A2 / Fold change vs veh, SLC12A2 / RFU, IBTK / Fold change vs veh, IBTK / RFU, ESF1 / Fold change vs veh, ESF1 / Fold change vs veh, TMEM50B / RFU, TAOK1 / Fold change vs veh, TAOK1 / RFU, ACBD3 / Fold change vs veh, ACBD3 / RFU, TMA16 / Fold change vs veh, TMA16 / RFU, RWDD3 / Fold change vs veh, RWDD3 / RFU, BCAT1 / Fold change vs veh, BCAT1 / RFU, EDEM3 / Fold change vs veh, EDEM3 / RFU, TMEM33 / Fold change vs veh, TMEM33 / RFU, WDR75 / Fold change vs veh, WDR75 / RFU, AHCTF1 / Fold change vs veh, AHCTF1 / RFU, TFRC / Fold change vs veh, TFRC / RFU, ZDHHC17 / Fold change vs veh, ZDHHC17 / RFU, NOM1 / Fold change vs veh, NOM1 / RFU, ARL8B / Fold change vs veh, ARL8B / RFU, ZBTB11 / Fold change vs veh, ZBTB11 / RFU, TAMM41 / Fold change vs veh, TAMM41 / RFU, KIAA1704 /// LOC100996395 / Fold change vs veh, KIAA1704 /// LOC100996395 / RFU, ING1 / Fold change vs veh, ING1 / RFU, TRMT61B / Fold change vs veh, TRMT61B / RFU, FUBP3 / Fold change vs veh, FUBP3 / RFU, TP53 / Fold change vs veh, TP53 / RFU, TNKS2 / Fold change vs veh, TNKS2 / RFU, ZFP14 / Fold change vs veh, ZFP14 / RFU, ACTR2 / Fold change vs veh, ACTR2 / RFU, PPP3R1 / Fold change vs veh, PPP3R1 / RFU, PIK3R1 / Fold change vs veh, PIK3R1 / RFU, HNRNPA1 / Fold change vs veh, HNRNPA1 / RFU, RNF170 / Fold change vs veh, RNF170 / RFU, ZNF28 / Fold change vs veh, ZNF28 / RFU, RNGTT / Fold change vs veh, RNGTT / RFU, OGT / Fold change vs veh, OGT / RFU, BRD1 / Fold change vs veh, BRD1 / RFU, MARS / Fold change vs veh, MARS / RFU, ZNF655 / Fold change vs veh, ZNF655 / RFU, FAHD1 / Fold change vs veh, FAHD1 / RFU, BDP1 / Fold change vs veh, BDP1 / RFU, LRRCC1 / Fold change vs veh, LRRCC1 / RFU, ARID1A / Fold change vs veh, ARID1A / RFU, ZNF146 / Fold change vs veh, ZNF146 / RFU, ZNF330 / Fold change vs veh, ZNF330 / RFU, GPN3 / Fold change vs veh, GPN3 / RFU, C9orf123 / Fold change vs veh, C9orf123 / RFU, N4BP2L2 / Fold change vs veh, N4BP2L2 / RFU, ARFIP1 / Fold change vs veh, ARFIP1 / RFU, FAM179B / Fold change vs veh, FAM179B / RFU, BCL10 / Fold change vs veh, BCL10 / RFU, UHRF1BP1L / Fold change vs veh, UHRF1BP1L / RFU, BET1 / Fold change vs veh, BET1 / RFU, CNOT2 / Fold change vs veh, CNOT2 / RFU, ZNF268 / Fold change vs veh, ZNF268 / Fold change vs veh, ZNF507 / RFU, DGCR2 / Fold change vs veh, DGCR2 / RFU, WDSUB1 / Fold change vs veh, WDSUB1 / Fold change vs veh, HSP90B1 /// MIR3652 / RFU, ADSS / Fold change vs veh, ADSS / RFU, GK / Fold change vs veh, GK / RFU, ZNF148 / Fold change vs veh, ZNF148 / RFU, TAF9 / Fold change vs veh, TAF9 / RFU, SLC1A5 / Fold change vs veh, SLC1A5 / RFU, SLMO2 / Fold change vs veh, SLMO2 / RFU, ABCC4 / Fold change vs veh, ABCC4 / RFU, LOC101060439 /// RAP1B / Fold change vs veh, LOC101060439 /// RAP1B / RFU, RFX7 / Fold change vs veh, RFX7 / RFU, GTPBP10 / Fold change vs veh, GTPBP10 / RFU, CNEP1R1 / Fold change vs veh, CNEP1R1 / RFU, BIVM-ERCC5 /// ERCC5 / Fold change vs veh, BIVM-ERCC5 /// ERCC5 / RFU, ILF3 / Fold change vs veh, ILF3 / RFU 11762660_at / Fold change /veh 11762660_at / RFU VCAN (11757783_s_at) / Fold change /veh VCAN (11757783_s_at) / RFU DDX43 (11728927_at) / Fold change /veh DDX43 (11728927_at) / RFU KRT8 (11758188_x_at) / Fold change /veh KRT8 (11758188_x_at) / RFU NKD1 (11759106_at) / Fold change /veh NKD1 (11759106_at) / RFU SRD5A1 (11742802_a_at) / Fold change /veh SRD5A1 (11742802_a_at) / RFU TPSAB1 /// TPSB2 (11721975_s_at) / Fold change /veh TPSAB1 /// TPSB2 (11721975_s_at) / RFU GSTM3 (11746129_a_at) / Fold change /veh GSTM3 (11746129_a_at) / RFU IL23R (11737362_x_at) / Fold change /veh IL23R (11737362_x_at) / RFU TMEM51 (11727254_a_at) / Fold change /veh TMEM51 (11727254_a_at) / RFU PIWIL2 (11732686_x_at) / Fold change /veh PIWIL2 (11732686_x_at) / RFU ORM1 (11744905_x_at) / Fold change /veh ORM1 (11744905_x_at) / RFU CCDC152 (11743942_at) / Fold change /veh CCDC152 (11743942_at) / RFU ECM1 (11717891_a_at) / Fold change /veh ECM1 (11717891_a_at) / RFU IL23R (11748794_a_at) / Fold change /veh IL23R (11748794_a_at) / RFU TNFAIP8L3 (11732012_x_at) / Fold change /veh TNFAIP8L3 (11732012_x_at) / RFU MBOAT4 (11741988_at) / Fold change /veh MBOAT4 (11741988_at) / RFU 11764193_at / Fold change /veh 11764193_at / RFU TMEM53 (11763286_at) / Fold change /veh TMEM53 (11763286_at) / RFU MAGEB2 (11727129_at) / Fold change /veh MAGEB2 (11727129_at) / RFU TMEM200A (11744735_a_at) / Fold change /veh TMEM200A (11744735_a_at) / RFU CCDC152 (11751479_a_at) / Fold change /veh CCDC152 (11751479_a_at) / RFU FAM211A (11726209_a_at) / Fold change /veh FAM211A (11726209_a_at) / RFU RGS16 (11746705_a_at) / Fold change /veh RGS16 (11746705_a_at) / RFU VCAN (11755009_s_at) / Fold change /veh VCAN (11755009_s_at) / RFU RHOB (11743442_s_at) / Fold change /veh RHOB (11743442_s_at) / RFU RGS16 (11720943_a_at) / Fold change /veh RGS16 (11720943_a_at) / RFU RGS16 (11720944_at) / Fold change /veh RGS16 (11720944_at) / RFU, VPS4B / Fold change vs veh, VPS4B / RFU, CREB1 / Fold change vs veh, CREB1 / RFU, DNAJC13 / Fold change vs veh, DNAJC13 / RFU, GNAQ / Fold change vs veh, GNAQ / RFU, CDK5R1 / Fold change vs veh, CDK5R1 / RFU, ZRANB3 / Fold change vs veh, ZRANB3 / RFU, CUL4A / Fold change vs veh, CUL4A / RFU, CCNY / Fold change vs veh, CCNY / RFU, UFL1 / Fold change vs veh, UFL1 / RFU, COG3 / Fold change vs veh, COG3 / RFU, DIAPH2 / Fold change vs veh, DIAPH2 / RFU, SKA2 / Fold change vs veh, SKA2 / RFU, AFF3 / Fold change vs veh, AFF3 / RFU, LMF1 / Fold change vs veh, LMF1 / RFU, IPO11 / Fold change vs veh, IPO11 / RFU, DFFB / Fold change vs veh, DFFB / RFU, FOXP1 / Fold change vs veh, FOXP1 / RFU, CARD8 / Fold change vs veh, CARD8 / RFU, STRN3 / Fold change vs veh, STRN3 / RFU, ADK / Fold change vs veh, ADK / RFU, RASSF2 / Fold change vs veh, RASSF2 / RFU, WIPF1 / Fold change vs veh, WIPF1 / RFU, LARP1B / Fold change vs veh, LARP1B / RFU, RASA1 / Fold change vs veh, RASA1 / RFU, RB1 / Fold change vs veh, RB1 / RFU, PPFIA1 / Fold change vs veh, PPFIA1 / RFU, MAT2A / Fold change vs veh, MAT2A / RFU, CCT5 / Fold change vs veh, CCT5 / RFU, WDR92 / Fold change vs veh, WDR92 / RFU, CUX1 / Fold change vs veh, CUX1 / RFU, TTC7A / Fold change vs veh, TTC7A / RFU, TMEM135 / Fold change vs veh, TMEM135 / RFU, DEPTOR / Fold change vs veh, DEPTOR / RFU, CPM / Fold change vs veh, CPM / RFU, DNAJB6 / Fold change vs veh, DNAJB6 / RFU, CACNA2D3 / Fold change vs veh, CACNA2D3 / RFU, DTX4 / Fold change vs veh, DTX4 / RFU, TFCP2 / Fold change vs veh, TFCP2 / RFU, GMCL1 /// GMCL1P1 / Fold change vs veh, GMCL1 /// GMCL1P1 / RFU, AEBP2 / Fold change vs veh, AEBP2 / RFU, SNHG1 /// SNORD22 /// SNORD25 /// SNORD26 /// SNORD27 /// SNORD28 /// SNORD29 /// SNORD31 / Fold change vs veh, SNHG1 /// SNORD22 /// SNORD25 /// SNORD26 /// SNORD27 /// SNORD28 /// SNORD29 /// SNORD31 / Fold change (Aza/veh), C12orf56 (ProbeSet 11735607_a_at) / Fold change (ACY-1035/veh), C12orf56 (ProbeSet 11735607_a_at) / Fold change (Aza/veh), FGFR1OP (ProbeSet 11751329_s_at) / Fold change (ACY-1035/veh), FGFR1OP (ProbeSet 11751329_s_at) / Fold change (Aza/veh), VPS36 (ProbeSet 11739960_a_at) / Fold change (ACY-1035/veh), VPS36 (ProbeSet 11739960_a_at) / RFU SYPL1 (11715823_x_at) / Fold change /veh SYPL1 (11715823_x_at) / RFU IGFBP7 (11715501_s_at) / Fold change /veh IGFBP7 (11715501_s_at) / RFU REEP3 (11722064_at) / Fold change /veh REEP3 (11722064_at) / RFU IGLL1 (11728026_x_at) / Fold change /veh IGLL1 (11728026_x_at): dose or concentration left out as unconfirmed
Settings: ProbeSet 11743510_at; LIST D

Nc1ccc(-c2cccs2)cc1NC(=O)c1ccc2c(c1)cc(C1CC1)n2CCN1CCOCC1 [ACY-1035]
RFU, UFL1: 325.04 RFU
